Experimental data from patent publication US20020010210A1, “PHARMACEUTICAL PREPARATION AND METHOD FOR TREATING CANCER” (priority 1997, published 2002).
Where a name gives a salt, the structure may show the parent alone. Ends that are not written are not given here.

What was measured:
Assay type in all cases: in vivo
[1] = test system: spontaneous breast cancer rat cells (SST-2); assay: Lung metastasis of implanted SST-2 cells in SHR rats (Example 3); conditions: 35 days after implantation; for Number of Metastasis Colonies (average), Peroral Administration: 1 mg/rat perorally from day of implantation to day 34; for Number of Metastasis Colonies (average), Subcutaneous Injection: 1 mg/rat subcutaneous injection from day of implantation to day 34
Method: 1×100,000 spontaneous breast cancer rat cells (SST-2) were subcutaneously implanted into the back of a rat (SHR rat) (5 rats per group) suffering from spontaneous hypertension. After 35 days, the rats were sacrificed, and the lung weight and the number of colonies formed were measured to examine the degree of metastasis of SST-2 to the lung. The compounds shown in Tables 3 and 4 each was administered perorally or through subcutaneous injection in a dose of 1 mg/rat over the period from the day of implantation to 34 days after implantation. The number of colonies formed was compared with that in the control group not subjected to any treatment, to examine metastasis to the lung.

[2] = test system: spontaneous breast cancer rat cells (SST-2); assay: Lung metastasis of SST-2 in SHR rats, ascorbic acid derivative combined with known anticancer agent (Example 4)
Method: 1×100,000 spontaneous breast cancer rat cells (SST-2) were subcutaneously implanted into the back of a rat (SHR rat) (5 rats per group) suffering from spontaneous hypertension. After 35 days, the rats were sacrificed, and the number of colonies formed were measured to examine the degree of metastasis of SST-2 to the lung.
The ascorbic acid derivatives used were L-ascorbic acid-2-phosphate-6-palmitate, L-ascorbic acid-6-benzoate (reference compound) and magnesium L-ascorbic acid-2-phosphate.
Each of the groups treated with an ascorbic acid derivative was subjected to a test of administering the ascorbic acid derivative alone and to a test of administering the ascorbic acid derivative in combination with a known anticancer agent as shown in Table 4. Furthermore, tests of administering the anticancer agents alone were conducted. Over the period of from 7 days prior to implantation to 34 days after the implantation, the ascorbic acid derivative was injected through a vein in the tail region at a dose of 1 mg/1 day/rat. Each of the known anticancer agents was perorally administered in a minimum dose by reference to the concentration for a single use case described in the publication, Tyakuhin Yoran (Medical Product Handbook), 4th Edition, pp. 1474-1509, Yakugyo Jiho-Sha (1989), and the number of colonies formed after metastasis was compared.

[3] = test system: spontaneous breast cancer rat cells (SST-2); assay: as above; remark: listed apart in the source
[4] = ascorbic acid derivative 1 mg/1 day/rat tail vein, day -7 to day 34, known anticancer agent perorally in minimum dose, colonies after 35 days

Compound	Number of Metastasis Colonies (average), Peroral Administration [1]	Number of Metastasis Colonies (average), Subcutaneous Injection [1]	Cancer metastasis inhibitory effect of combination with L-Ascorbic Acid-2-Phosphate-6-Palmitate versus each agent alone ([2]; rat, in vivo)	Cancer metastasis inhibitory effect of combination with L-Ascorbic Acid-2-Phosphate-6-Benzoate versus each agent alone ([3]; rat, in vivo)	Cancer metastasis inhibitory effect of combination with L-Ascorbic Acid-6-Palmitate versus each agent alone ([3]; rat, in vivo)	Cancer metastasis inhibitory effect of combination with L-Ascorbic Acid-2-Phosphate-6-Palmitate versus each agent alone [2, 4]	Cancer metastasis inhibitory effect of combination with L-Ascorbic Acid-2-Phosphate-6-Benzoate versus each agent alone [3, 4]	Cancer metastasis inhibitory effect of combination with L-Ascorbic Acid-6-Palmitate versus each agent alone [3, 4]
CC(C)(C)C(=O)OC[C@H](O)[C@H]1OC(=O)C(O)=C1OP(=O)(O)O [6-O-Pivaloyl-L-ascorbic acid-3-phosphate]	89.6	86.2						
CCCCCCCCCCCCCCCC(=O)OC[C@H](O)[C@H]1OC(=O)C(OC(=O)CCCCCCCCCCCCCCC)=C1O [L-Ascorbic acid-2,6-dipalmitate]	89.8	86.6						
C[C@]12C[C@H]3S[C@H]3C[C@@H]1CC[C@@H]1[C@@H]2CC[C@]2(C)[C@@H](O)CC[C@@H]12 [epitiostanol]			+	+	−			
O=c1[nH]c(=O)n([C@H]2C[C@H](O)[C@@H](CO)O2)cc1F [floxuridine]						+	+	−
O=c1[nH]cc(F)c(=O)[nH]1 [fluorouracil]						+	+	−
O=P1(NCCCl)OCCCN1CCCl (stereo not shown) [ifosfamide]			+	+	−			
COC1(O[C@H]2CC[C@H]3[C@@H]4CC[C@H]5C[C@@H]6S[C@@H]6C[C@]5(C)[C@H]4CC[C@]23C)CCCC1 [mebitiostan]						+	+	−
S=c1nc[nH]c2nc[nH]c12 [meercaptopurine]			+	+	−			
NC(Cc1ccc(N(CCCl)CCCl)cc1)C(=O)O (stereo not shown) [merphalan]						+	+	−
CN(Cc1cnc2nc(N)nc(N)c2n1)c1ccc(C(=O)N[C@@H](CCC(=O)O)C(=O)O)cc1 [methotrexate]						+	+	−
CO[C@@]12[C@H](COC(N)=O)C3=C(C(=O)C(C)=C(N)C3=O)N1C[C@@H]1N[C@@H]12 [mitomycin C]			+	+	−			
Cc1ncc(CNC(=O)N(CCCl)N=O)c(N)n1 [nimustine hydrochloride]			+	+	−			
CNNCc1ccc(C(=O)NC(C)C)cc1 [procarbazine hydrochloride]						+	+	−
CC/C(=C(\c1ccccc1)c1ccc(OCCN(C)C)cc1)c1ccccc1 [tamoxifen citrate]						+	+	−
O=c1[nH]c(=O)n(C2CCCO2)cc1F (stereo not shown) [tegaful]			+	+	−			
OC[C@H]1O[C@@H](n2cnc3c(S)ncnc32)[C@H](O)[C@@H]1O [thioinosine]						+	+	−
CC[C@]1(O)C[C@@H]2CN(CCc3c([nH]c4ccccc34)[C@@](C(=O)OC)(c3cc4c(cc3OC)N(C)[C@H]3[C@@](O)(C(=O)OC)[C@H](OC(C)=O)[C@]5(CC)C=CCN6CC[C@]43[C@@H]65)C2)C1 [vinblastine sulfate]						+	+	−
CC[C@]1(O)C[C@H]2CN(CCc3c([nH]c4ccccc34)[C@@](C(=O)OC)(c3cc4c(cc3OC)N(C=O)[C@H]3[C@@](O)(C(=O)OC)[C@H](OC(C)=O)[C@]5(CC)C=CCN6CC[C@]43[C@@H]65)C2)C1 [vincristine sulfate]						+	+	−
CC[C@]1(O)C[C@@H]2CN(CCc3c([nH]c4ccccc34)[C@@](C(=O)OC)(c3cc4c(cc3OC)N(C)[C@H]3[C@@](O)(C(N)=O)[C@H](O)[C@]5(CC)C=CCN6CC[C@]43[C@@H]65)C2)C1 [vindesine sulfate]						+	+	−
CDPGYIGSR-NH2 [CDPGYGSR-NH2]			+	+	−			
CIZOFERAN						+	+	−
L-asparginase			+	+	−			
PLEOMYCIN sulfate			+	+	−			
Platelet Factor-4			+	+	−			
lentinan						+	+	−
neocarzinostatin						+	+	−
peptidoglycan						+	+	−
pleomycin hydrochloride			+	+	−			
protamine			+	+	−			
vebromycin sulfate			+	+	−			
